Measurements taken from patent publication US10730826B2, “Ketone inhibitors of lysine gingipain” (CORTEXYME, INC., priority 2016, dated 2020).

Columns and labels:
[1] = target: Kgp in P. gingivalis W83 bacteria (Porphyromonas gingivalis (Bacteroides gingivalis), UniProt Q51817); test: Bacterial smear staining with gingipain activity probes; assay type: cell-based; settings: 1 μM probe, 1 hr, 37° C.; no signal in Kgp knockout
Experimental: Bacteria were then pelleted and resuspended in 20 μl of PBS, which was dropped onto a poly-L-lysine coated slide and kept in a dark box at room temperature for about 2 hrs in order for the droplet to dry. The slide was then washed 3 times in PBS. Slides were mounted with a mounting media containing DAPI stain for bacterial DNA and visualized under fluorescence microscopy.

[2] = target: T1, Kgp (Porphyromonas gingivalis (Bacteroides gingivalis), UniProt Q51817); test: Activity probe labelling of Kgp in P. gingivalis-infected Jurkat cells (SDS-PAGE); assay type: cell-based; settings: purified Kgp and infected Jurkat cells, FIG. 6A
Text: The identity of this labeled protein in P. gingivalis-infected cells was confirmed to be Kgp by Western blot.

[3] = target: T2, Kgp (Porphyromonas gingivalis (strain ATCC 33277 / DSM 20709 / CIP 103683 / JCM 12257 / NCTC 11834 / 2561), UniProt B2RLK2); test: Gingival tissue staining with activity probe; parameters: species or system human; settings: patient with periodontal disease, FIG. 5B
Experimental: Slides of fresh frozen gingival tissue (5 micron thickness) were removed from a −80° C. freezer and thawed at RT for 10 min. […] Slides were then washed three times in PBS, 5 min each, then fixed in fresh 4% PFA for 15 min at RT, then washed again three times in PBS. Then slides were incubated with a 1× working Trueblack solution (Biotium) for 30 min at RT. Slides were then washed three times in PBS and mounted with anti-fade mounting media containing DAPI (FIG. 5B).

[4] = target: T2, Kgp; test: Buccal cell staining with activity probe; assay type: cell-based, human; settings: 1 μM probe, 1 hr, 37° C., FIG. 7
Experimental: Cells were incubated for 1 hr at 37° C. and pelleted. Cells were resuspended in 20 μL of PBS and placed on poly-L-lysine coated slides, washed, and dried. Slides were mounted with antifade mounting media containing DAPI and visualized under a fluorescence microscope.

[5] = target: T1, Kgp; test: Biotin activity probe pull-down of Kgp from P. gingivalis lysate; assay type: binding; settings: streptavidin beads, Western blot with CAB102, FIG. 8
Experimental: P. gingivalis W83 was lysed with B-Per buffer for 15 min at 4° C. […] 5 mg of streptavidin-beads were incubated with all samples for 1 hr at room temperature on an inverting platform. The beads were collected after 1 hr and heated at 100° C. for 5 min with 0.1% SDS to disrupt biotin-streptavidin binding. The resulting supernatants were analyzed by SDS-PAGE and Western blotting for specific detection of Kgp with CAB102 (FIG. 8).

SMILES	fluorescence of W83 bacteria after exposure to probe [1]	binding of probe to Kgp [2]	fluorescence signal in gingival tissue section [3]	staining of buccal cells [4]	amount of P. gingivalis from which Kgp was pulled down and detected [5]
CC1=CC(C)=[N+]2C1=Cc1ccc(CCC(=O)NCc3cn(-c4cccc(C(=O)NC(CCCCN)C(=O)COc5c(F)cccc5F)c4)nn3)n1[B-]2(F)F (centres unmarked) [Compound 15a]	fluorescent	irreversibly binds to purified Kgp	yields a fluorescence signal	pronounced, punctate staining	
NCCCCC(NC(=O)c1cccc(-n2cc(CNC(=O)CCCC[C@@H]3SC[C@@H]4NC(=O)N[C@@H]43)nn2)c1)C(=O)COc1c(F)cccc1F (some centres unmarked) [Compound 51a]					at least 10^6 CFU
